According to patent publication US11739064B2, “HDAC inhibitors and therapeutic methods using the same” (THE BOARD OF TRUSTEES OF THE UNIVERSITY OF ILLINOIS, priority 2015, dated 2023):
Read-outs that look alike come from different tables or passages of the source.

Assays:
HDAC2 = HDAC2 (Homo sapiens, UniProt Q92769); experiment: In vitro HDAC inhibition assay, HDAC2; type: biochemical; conditions: NI = No inhibition at a concentration of 50 pM (footnote b); read-out: HDAC isoform IC50, HDAC2
HDAC3/NcoR2 complex = HDAC3/NcoR2 complex (Homo sapiens, UniProt O15379); experiment: In vitro HDAC inhibition assay, HDAC3; type: biochemical; conditions: NI = No inhibition at a concentration of 50 pM (footnote b); read-out: HDAC isoform IC50, HDAC3
Human HDAC1 = Human HDAC1 (Homo sapiens, UniProt Q13547); experiment: In vitro HDAC inhibition assay, HDAC1
Human HDAC6 = target: T1, Human HDAC6 (Homo sapiens, UniProt Q9UBN7); experiment: In vitro HDAC inhibition assay, HDAC6; type: biochemical; conditions: read-out: HDAC isoform IC50, HDAC6
T1 construct: Full length with N-terminal GST tag, MW=159 kDa; GST (N); host or cells: baculovirus expression system, Sf9 cells
T1 sequence (Q9UBN7 1-1215): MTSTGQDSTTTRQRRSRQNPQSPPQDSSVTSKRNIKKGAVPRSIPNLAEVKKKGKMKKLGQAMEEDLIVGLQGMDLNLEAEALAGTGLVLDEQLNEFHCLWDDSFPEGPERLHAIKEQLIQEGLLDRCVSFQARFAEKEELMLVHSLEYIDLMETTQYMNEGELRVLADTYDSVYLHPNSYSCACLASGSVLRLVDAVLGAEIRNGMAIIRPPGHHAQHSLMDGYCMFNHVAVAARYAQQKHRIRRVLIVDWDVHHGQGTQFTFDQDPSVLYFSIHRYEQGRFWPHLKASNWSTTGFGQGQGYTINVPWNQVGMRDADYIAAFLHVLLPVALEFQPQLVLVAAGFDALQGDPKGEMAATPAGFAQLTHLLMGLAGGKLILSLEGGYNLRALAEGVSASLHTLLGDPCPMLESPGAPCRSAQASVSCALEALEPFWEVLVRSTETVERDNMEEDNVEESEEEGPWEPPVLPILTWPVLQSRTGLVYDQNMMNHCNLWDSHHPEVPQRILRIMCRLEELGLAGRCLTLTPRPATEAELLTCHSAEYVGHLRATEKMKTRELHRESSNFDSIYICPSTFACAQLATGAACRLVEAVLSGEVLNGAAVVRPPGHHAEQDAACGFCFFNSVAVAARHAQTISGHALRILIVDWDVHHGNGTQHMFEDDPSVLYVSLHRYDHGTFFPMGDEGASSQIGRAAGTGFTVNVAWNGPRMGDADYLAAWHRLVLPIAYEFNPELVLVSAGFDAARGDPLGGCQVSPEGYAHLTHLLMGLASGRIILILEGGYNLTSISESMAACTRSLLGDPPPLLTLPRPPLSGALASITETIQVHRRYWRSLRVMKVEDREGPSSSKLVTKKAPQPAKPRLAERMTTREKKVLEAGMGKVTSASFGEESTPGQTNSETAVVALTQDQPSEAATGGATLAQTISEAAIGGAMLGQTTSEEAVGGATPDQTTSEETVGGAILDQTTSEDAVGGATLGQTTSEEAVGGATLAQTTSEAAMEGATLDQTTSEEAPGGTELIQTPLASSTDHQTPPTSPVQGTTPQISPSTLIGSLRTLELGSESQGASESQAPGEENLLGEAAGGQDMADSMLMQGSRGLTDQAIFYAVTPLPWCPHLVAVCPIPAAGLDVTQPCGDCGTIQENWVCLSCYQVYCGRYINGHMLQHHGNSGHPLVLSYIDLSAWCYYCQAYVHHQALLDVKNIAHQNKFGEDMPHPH

HDAC10 = target: T2, HDAC10 (Homo sapiens, UniProt Q969S8); experiment: In vitro HDAC inhibition assay, HDAC10; type: biochemical; conditions: NI = No inhibition at a concentration of 50 pM (footnote b); read-out: HDAC isoform IC50, HDAC10
T2 sequence (Q969S8 1-669): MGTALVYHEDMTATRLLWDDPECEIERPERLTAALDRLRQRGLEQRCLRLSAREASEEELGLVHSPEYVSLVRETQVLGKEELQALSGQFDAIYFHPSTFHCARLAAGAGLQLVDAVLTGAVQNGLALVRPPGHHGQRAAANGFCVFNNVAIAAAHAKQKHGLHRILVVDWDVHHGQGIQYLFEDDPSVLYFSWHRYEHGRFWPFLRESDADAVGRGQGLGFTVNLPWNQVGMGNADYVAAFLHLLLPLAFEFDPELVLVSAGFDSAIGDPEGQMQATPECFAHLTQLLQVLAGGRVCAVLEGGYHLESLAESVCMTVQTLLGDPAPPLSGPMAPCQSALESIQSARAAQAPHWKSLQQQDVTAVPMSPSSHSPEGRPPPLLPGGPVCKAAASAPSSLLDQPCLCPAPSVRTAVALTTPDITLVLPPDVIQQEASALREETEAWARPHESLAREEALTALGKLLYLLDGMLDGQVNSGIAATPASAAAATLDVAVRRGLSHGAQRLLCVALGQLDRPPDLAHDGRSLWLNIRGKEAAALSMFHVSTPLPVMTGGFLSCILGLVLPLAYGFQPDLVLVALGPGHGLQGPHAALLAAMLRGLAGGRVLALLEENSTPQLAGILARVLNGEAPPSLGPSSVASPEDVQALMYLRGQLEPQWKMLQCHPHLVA

BxPC3 = experiment: In vitro growth inhibition (GI), MTS cell proliferation assay (Table 5), BxPC3; type: cell-based; conditions: Homo sapiens, BXPC-3, 72 hours post-treatment
L3.6pl = experiment: In vitro growth inhibition (GI), MTS cell proliferation assay (Table 5), L3.6pl; type: cell-based; conditions: Homo sapiens, 72 hours post-treatment
PANC1 cells = experiment: Scratch-wound cell migration assay; type: cell-based; parameters: key to Inhibition of cell migration, 24 h / Inhibition of cell migration, 48 h: Level of inhibition (high to low): +++, ++ or +; Level of inhibition (high to low): +++, ++ or +; Level of inhibition (high to low): +++, ++ or +; no inhibition: −; conditions: for Inhibition of cell migration, 24 h: PANC1, 24 h post wounding; for Inhibition of cell migration, 48 h: PANC1, 48 h post wounding
Method: FIG. 2 contains photographs of PANC1 cells treated with present compounds 9 and 6 taken 24 and 48 hours (post wounding) after a scratch was made through a confluent layer of cells; and
PANC1 Cell migration and effect on T and NK Cells. The effect of HDAC6 inhibition on cell migration and cellular cytotoxicity was evaluated. […] Thus, these HDAC6-selective inhibitors could function well to block metastasis. However, in contrast to the effect observed on cell migration, none of the compounds tested affected CD8+ T cell or natural killer (NK) cell-mediated cytotoxicity, despite the ability of the compounds to substantially increase the levels of acetyl-tubulin in these cell lines.

acetylated alpha-tubulin = experiment: Accumulation of acetylated alpha-tubulin in pancreatic cancer cells; type: cell-based; conditions: FIG. 1A
Source text: Cell cycle and inhibition of alpha-tubulin deacetylation.

[1] = read-out: HDAC isoform IC50, HDAC1, NI = No inhibition at a concentration of 50 pM (footnote b)

Sequence of HDAC3/NcoR2 complex (O15379 whole entry, canonical isoform): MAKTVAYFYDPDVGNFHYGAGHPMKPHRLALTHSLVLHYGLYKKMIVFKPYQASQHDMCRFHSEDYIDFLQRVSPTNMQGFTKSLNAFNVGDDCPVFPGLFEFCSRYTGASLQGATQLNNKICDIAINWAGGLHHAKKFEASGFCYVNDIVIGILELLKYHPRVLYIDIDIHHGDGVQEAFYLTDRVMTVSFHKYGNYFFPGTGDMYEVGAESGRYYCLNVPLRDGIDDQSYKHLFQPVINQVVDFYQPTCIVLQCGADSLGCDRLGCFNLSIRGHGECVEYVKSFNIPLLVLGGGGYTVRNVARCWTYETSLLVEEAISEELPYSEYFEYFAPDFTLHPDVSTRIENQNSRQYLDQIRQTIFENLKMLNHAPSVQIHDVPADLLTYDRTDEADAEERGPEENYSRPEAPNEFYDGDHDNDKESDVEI
Sequence of HDAC3/NcoR2 complex (Q9Y618 395-489 partner limits assumed): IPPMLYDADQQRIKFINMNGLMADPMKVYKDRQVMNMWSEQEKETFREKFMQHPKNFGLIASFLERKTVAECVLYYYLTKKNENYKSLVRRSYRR
Sequence of Human HDAC1 (Q13547 whole entry, canonical isoform): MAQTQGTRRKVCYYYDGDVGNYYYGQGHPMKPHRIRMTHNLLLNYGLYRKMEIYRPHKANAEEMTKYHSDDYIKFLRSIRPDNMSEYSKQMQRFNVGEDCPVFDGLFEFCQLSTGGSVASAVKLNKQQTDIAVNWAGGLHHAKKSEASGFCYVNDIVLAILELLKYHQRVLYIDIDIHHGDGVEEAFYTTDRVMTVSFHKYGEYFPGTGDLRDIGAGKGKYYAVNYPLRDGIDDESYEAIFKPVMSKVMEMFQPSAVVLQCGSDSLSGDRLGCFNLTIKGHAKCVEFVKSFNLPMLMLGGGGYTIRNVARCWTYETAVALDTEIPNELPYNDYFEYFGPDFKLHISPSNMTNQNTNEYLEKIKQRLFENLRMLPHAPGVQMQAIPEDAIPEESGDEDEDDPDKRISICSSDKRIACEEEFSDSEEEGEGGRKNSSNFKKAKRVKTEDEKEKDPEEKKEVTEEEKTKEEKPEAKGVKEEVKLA
Sequence of HDAC2 (Q92769 whole entry, canonical isoform): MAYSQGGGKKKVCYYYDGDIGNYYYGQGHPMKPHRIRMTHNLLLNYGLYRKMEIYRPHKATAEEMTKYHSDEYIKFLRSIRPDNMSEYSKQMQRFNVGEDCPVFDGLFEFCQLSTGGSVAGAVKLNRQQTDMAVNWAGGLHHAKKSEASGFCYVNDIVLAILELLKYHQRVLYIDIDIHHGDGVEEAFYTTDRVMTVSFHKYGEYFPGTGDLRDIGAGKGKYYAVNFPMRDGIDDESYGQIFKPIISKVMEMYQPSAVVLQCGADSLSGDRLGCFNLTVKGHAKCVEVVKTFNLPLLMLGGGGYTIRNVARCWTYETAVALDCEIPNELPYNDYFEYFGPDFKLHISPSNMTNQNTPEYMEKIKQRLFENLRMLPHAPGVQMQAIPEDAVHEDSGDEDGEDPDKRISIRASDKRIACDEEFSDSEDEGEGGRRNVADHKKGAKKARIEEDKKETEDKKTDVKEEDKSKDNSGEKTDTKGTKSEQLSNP

Compound	IC50 (HDAC2)	IC50 (HDAC3/NcoR2 complex)	IC50 (Human HDAC1; [1])	IC50 (Human HDAC6)	IC50 (HDAC10)	GI50 (BxPC3)	GI50 (L3.6pl)	IC50 (Human HDAC1)	Inhibition of cell migration, 24 h (PANC1 cells)	Inhibition of cell migration, 48 h (PANC1 cells)	Accumulation of acetylated alpha-tubulin (acetylated alpha-tubulin)
O=C(NO)c1ccc(CNC(=O)c2cc(-c3cccc(NC(=O)C4CCCCC4)c3)on2)cc1 [Compound 17, 5-[3-(Cyclohexanecarbonyl-amino)-phenyl]-isoxazole-3-carboxylic acid 4-hydroxycarbamoyl-benzylamide]	4.3 µM	0.669 µM	0.212 µM	0.0026 µM	0.191 µM						
O=C(NO)c1ccc(CNC(=O)c2cc(-c3ccc(NC(=O)C4CCCCC4)cc3)on2)cc1 [Compound 16, 5-[4-(Cyclohexanecarbonyl-amino)-phenyl]-isoxazole-3-carboxylic acid 4-hydroxycarbamoyl-benzylamide]	2.49 µM	0.215 µM	0.35 µM	0.0054 µM	0.204 µM						
O=C(NO)c1cc(CC(Cc2c[nH]c3ccccc23)NC(=O)C(F)(F)F)on1 (centres unmarked) [Compound 20, 5-[3-(1H-Indol-3-yl)-2-(2,2,2-trifluoro-acetylamino)-propyl]-isoxazole-3-carboxylic acid hydroxyamide]		41.6 µM		3.05 µM							
CCOC(=O)Nc1cccc(-c2csc(NC(=O)CCc3cc(C(=O)NO)no3)n2)c1 [Compound 5, (3-{2-[3-(3-Hydroxycarbamoyl-isoxazol-5-yl)-propionylamino]-thiazol-4-yl}-phenyl)-carbamic acid ethyl ester]	1.1 µM	0.107 µM	0.266 µM	0.0033 µM	0.271 µM	7 µM	2.1 µM				
CC(C)(C)OC(=O)Nc1cccc(-c2cc(C(=O)NCCc3cc(C(=O)NO)no3)no2)c1 [Compound 7, (3-{3-[2-(3-Hydroxycarbamoyl-isoxazol-5-yl)-ethylcarbamoyl]-isoxazol-5-yl}-phenyl)-carbamic acid tert-butyl ester]		98.8 µM		0.0077 µM		> 50 µM	> 50 µM	54 µM	+	+	
CC(C)(C)OC(=O)Nc1ccc(-c2csc(NC(=O)CCCc3cc(C(=O)NO)no3)n2)cc1 [Compound 3, (4-{2-[4-(3-Hydroxycarbamoyl-isoxazol-5-yl)-butyrylamino]-thiazol-4-yl}-phenyl)-carbamic acid tert-butyl ester]	1.14 µM	0.448 µM	0.401 µM	0.0412 µM	0.0529 µM						
COc1ccc(C(=O)NC(Cc2cc(C(=O)NO)no2)Cc2c[nH]c3ccccc23)cc1OC (centres unmarked) [Compound 21, 5-[2-(3,4-Dimethoxy-benzoylamino)-3-(1H-indol-3-yl)-propyl]-isoxazole-3-carboxylic acid hydroxyamide]		54.1 µM		0.721 µM				49.9 µM			
CC(C)(C)C(=O)Nc1cccc(-c2cc(C(=O)NCCc3cc(C(=O)NO)no3)no2)c1 [Compound 10, 5-[2-({5-[3-(2,2-Dimethyl-propionylamino)-phenyl]-isoxazole-3-carbonyl}-amino)-ethyl]-isoxazole-3-carboxylic acid hydroxyamide]				0.0212 µM	40.1 µM			76 µM	−	−	accumulation of acetylated alpha-tubulin
O=C(NC(Cc1cc(C(=O)NO)no1)Cc1c[nH]c2ccccc12)c1ccc(Cl)cc1 (centres unmarked) [Compound 19, 5-[2-(4-Chloro-benzoylamino)-3-(1H-indol-3-yl)-propyl]-isoxazole-3-carboxylic acid hydroxyamide]		37.8 µM		0.43 µM				46.6 µM			
CCOC(=O)Nc1ccc(-c2cc(C(=O)NCCc3cc(C(=O)NO)no3)no2)cc1 [Compound 8, (4-{3-[2-(3-Hydroxycarbamoyl-isoxazol-5-yl)-ethylcarbamoyl]-isoxazol-5-yl}-phenyl)-carbamic acid ethyl ester]	41.3 µM	5.19 µM	3.91 µM	0.101 µM	12.5 µM	> 50 µM	47 µM				
